Measurements from ChEMBL document CHEMBL1201862, “PubChem BioAssay data set” (2004).
Active and inactive are the calls of the source.

Key:
[1] = target: NAD-dependent protein deacylase sirtuin-5, mitochondrial (Homo sapiens, UniProt Q9NXA8); assay: SIRT5 desuccinylase inhibitors, dose response, biochemical, fluorescence imaging, cherry-pick, set 5 (AID 720591);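 note: desuccinylation of succinyl peptide AMC substrate read as fluorescence after trypsin release; potency of inhibitors that lower fluorescence and may act on trypsin instead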
NAD-dependent protein deacylase sirtuin-5, mitochondrial, sequence (Q9NXA8 whole entry): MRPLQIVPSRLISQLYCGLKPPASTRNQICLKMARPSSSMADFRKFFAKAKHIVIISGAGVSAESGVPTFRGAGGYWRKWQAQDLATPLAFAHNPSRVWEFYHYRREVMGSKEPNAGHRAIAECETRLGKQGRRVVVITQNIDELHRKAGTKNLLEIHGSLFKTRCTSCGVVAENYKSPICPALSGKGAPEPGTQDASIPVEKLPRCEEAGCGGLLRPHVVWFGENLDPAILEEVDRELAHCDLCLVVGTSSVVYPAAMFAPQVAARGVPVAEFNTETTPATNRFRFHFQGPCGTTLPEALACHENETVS

[2] = target: T1, Methionyl-tRNA synthetase, putative (Trypanosoma brucei brucei, UniProt Q38C91); type: functional, Trypanosoma brucei brucei strain 927/4 GUTat10.1
T1 sequence (Q38C91 whole entry): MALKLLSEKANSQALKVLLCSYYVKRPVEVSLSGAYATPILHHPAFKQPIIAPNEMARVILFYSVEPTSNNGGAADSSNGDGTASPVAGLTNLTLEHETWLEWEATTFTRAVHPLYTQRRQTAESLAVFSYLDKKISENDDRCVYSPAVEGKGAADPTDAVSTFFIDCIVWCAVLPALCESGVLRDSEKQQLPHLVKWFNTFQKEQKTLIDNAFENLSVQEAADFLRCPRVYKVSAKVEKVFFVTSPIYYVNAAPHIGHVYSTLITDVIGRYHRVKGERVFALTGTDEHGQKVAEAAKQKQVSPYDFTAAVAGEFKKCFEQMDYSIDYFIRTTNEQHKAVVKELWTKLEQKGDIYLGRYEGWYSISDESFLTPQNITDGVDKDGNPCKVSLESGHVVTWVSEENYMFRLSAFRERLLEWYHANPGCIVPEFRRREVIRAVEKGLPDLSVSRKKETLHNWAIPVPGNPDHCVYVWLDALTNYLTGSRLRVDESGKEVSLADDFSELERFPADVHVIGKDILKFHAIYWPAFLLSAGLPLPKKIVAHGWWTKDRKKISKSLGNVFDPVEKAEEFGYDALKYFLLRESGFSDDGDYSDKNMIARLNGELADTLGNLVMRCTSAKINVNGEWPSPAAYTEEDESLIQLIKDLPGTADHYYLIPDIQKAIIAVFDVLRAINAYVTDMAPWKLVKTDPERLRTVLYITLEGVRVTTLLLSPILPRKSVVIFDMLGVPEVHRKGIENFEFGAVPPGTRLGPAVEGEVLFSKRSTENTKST

[3] = Counterscreen for inhibitors of Trypanosoma brucei methionyl tRNA synthetase (MetRS): Luminescence-based cell-based high throughput dose response assay to identify compounds that are cytotoxic to Jurkat human T lymphocyte cells.; type: functional
[4] = target: T1, Methionyl-tRNA synthetase, putative; type: functional, Trypanosoma brucei brucei strain 927/4 GUTat10.1; remark: listed apart in the source
[5] = Late stage counterscreen for inhibitors of Trypanosoma brucei methionyl tRNA synthetase (MetRS): Luminescence-based cell-based high throughput dose response assay to identify compounds that are cytotoxic to Jurkat human T lymphocyte cells.; type: functional
[6] = target: T2, Fatty acid synthase (Homo sapiens, UniProt P49327); assay: FAS thioesterase domain inhibitors, dose response, biochemical, endpoint fluorescence intensity, uHTS hits (AID 624327); type: functional;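 note: fluorescence from hydrolysis of an O-methyl fluorescein acyl ester substrate by the enzyme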
T2 sequence (P49327 whole entry, the tested form may be a part): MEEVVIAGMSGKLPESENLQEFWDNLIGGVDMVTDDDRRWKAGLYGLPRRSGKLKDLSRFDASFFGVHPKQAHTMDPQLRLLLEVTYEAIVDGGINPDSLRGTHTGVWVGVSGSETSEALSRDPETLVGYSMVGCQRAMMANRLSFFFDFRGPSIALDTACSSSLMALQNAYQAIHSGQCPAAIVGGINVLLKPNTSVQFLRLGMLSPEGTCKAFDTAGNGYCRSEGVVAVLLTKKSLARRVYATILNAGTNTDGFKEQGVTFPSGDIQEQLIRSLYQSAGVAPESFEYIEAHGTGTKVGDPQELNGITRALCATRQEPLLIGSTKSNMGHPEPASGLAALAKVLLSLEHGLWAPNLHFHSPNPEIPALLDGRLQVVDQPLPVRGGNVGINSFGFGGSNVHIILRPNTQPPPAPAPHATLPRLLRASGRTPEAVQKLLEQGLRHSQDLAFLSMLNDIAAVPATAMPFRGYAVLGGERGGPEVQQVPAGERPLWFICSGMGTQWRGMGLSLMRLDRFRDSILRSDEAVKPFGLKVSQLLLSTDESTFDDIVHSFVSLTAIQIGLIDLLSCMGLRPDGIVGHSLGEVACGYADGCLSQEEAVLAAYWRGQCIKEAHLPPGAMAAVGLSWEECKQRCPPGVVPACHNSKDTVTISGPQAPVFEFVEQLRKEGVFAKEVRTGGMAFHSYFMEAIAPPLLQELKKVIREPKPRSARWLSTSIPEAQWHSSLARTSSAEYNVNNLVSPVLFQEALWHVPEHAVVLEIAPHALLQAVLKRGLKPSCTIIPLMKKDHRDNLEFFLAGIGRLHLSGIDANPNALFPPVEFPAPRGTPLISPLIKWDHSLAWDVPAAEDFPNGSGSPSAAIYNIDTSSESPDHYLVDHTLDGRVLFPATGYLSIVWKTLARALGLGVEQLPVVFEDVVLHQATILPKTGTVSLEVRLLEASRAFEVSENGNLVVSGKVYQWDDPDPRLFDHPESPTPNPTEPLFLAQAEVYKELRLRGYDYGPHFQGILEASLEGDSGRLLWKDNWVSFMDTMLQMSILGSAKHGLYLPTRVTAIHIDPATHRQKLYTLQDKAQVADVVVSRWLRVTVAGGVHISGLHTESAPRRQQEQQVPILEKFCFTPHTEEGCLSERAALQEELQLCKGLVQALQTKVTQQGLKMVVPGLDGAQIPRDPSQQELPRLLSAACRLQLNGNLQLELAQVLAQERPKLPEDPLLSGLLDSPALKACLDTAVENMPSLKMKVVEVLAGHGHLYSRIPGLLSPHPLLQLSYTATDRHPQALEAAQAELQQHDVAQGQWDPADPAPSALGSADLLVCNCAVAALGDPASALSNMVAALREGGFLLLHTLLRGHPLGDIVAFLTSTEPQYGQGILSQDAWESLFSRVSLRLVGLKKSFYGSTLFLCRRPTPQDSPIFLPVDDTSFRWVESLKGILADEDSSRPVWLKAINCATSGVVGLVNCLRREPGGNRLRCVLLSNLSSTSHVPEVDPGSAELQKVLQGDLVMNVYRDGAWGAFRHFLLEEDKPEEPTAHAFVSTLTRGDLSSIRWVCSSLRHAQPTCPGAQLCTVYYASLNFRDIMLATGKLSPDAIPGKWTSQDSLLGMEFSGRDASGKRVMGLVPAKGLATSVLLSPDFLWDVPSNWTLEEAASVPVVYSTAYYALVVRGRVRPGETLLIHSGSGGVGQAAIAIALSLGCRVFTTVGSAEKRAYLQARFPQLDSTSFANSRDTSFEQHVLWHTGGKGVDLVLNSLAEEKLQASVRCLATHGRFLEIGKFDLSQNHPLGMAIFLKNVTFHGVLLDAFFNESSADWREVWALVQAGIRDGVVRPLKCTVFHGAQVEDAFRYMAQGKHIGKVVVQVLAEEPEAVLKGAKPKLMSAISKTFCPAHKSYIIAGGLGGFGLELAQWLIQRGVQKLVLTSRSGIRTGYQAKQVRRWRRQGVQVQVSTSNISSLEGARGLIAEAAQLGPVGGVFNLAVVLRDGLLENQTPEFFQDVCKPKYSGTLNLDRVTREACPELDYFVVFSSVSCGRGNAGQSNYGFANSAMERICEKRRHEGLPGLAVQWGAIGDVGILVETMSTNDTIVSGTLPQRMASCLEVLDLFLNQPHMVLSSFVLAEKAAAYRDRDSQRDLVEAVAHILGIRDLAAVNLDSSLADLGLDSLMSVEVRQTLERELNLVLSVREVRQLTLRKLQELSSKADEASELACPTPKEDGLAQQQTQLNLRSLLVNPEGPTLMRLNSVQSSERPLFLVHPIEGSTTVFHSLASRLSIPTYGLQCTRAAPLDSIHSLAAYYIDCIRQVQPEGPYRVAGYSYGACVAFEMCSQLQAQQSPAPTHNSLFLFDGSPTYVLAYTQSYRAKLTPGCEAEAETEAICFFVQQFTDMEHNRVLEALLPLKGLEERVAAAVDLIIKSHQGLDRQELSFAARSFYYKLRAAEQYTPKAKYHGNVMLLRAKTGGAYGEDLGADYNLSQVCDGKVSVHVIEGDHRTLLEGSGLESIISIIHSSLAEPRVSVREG

[7] = HeLa cell cytotoxicity, dose response, cytotoxicity control for MgcRacGAP inhibitor project (AID 624300); type: functional
[8] = target: T3, Rac GTPase-activating protein 1 (Homo sapiens, UniProt Q9H0H5); assay: MgcRacGAP GTPase-activating activity inhibitors, confirmation, biochemical, ADP Hunter fluorescence, primary and confirmatory (AID 624330); type: functional
T3 sequence (Q9H0H5 whole entry): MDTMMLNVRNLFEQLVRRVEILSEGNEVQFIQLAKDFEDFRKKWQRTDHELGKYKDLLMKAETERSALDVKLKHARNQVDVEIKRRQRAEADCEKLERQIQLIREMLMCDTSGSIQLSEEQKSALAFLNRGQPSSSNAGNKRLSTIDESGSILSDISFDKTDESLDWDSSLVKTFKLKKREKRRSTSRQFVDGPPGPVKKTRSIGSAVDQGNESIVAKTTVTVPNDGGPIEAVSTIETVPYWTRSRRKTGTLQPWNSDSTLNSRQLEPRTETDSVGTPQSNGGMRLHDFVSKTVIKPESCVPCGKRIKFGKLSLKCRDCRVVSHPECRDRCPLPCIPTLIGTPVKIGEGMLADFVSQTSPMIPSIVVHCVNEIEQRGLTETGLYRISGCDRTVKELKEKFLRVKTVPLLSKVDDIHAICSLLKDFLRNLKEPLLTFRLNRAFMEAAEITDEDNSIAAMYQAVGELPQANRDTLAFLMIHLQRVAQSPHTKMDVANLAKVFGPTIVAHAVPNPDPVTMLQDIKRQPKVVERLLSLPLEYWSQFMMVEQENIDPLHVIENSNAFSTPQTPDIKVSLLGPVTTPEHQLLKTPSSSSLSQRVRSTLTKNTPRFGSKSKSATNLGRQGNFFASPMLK

[9] = target: T2, Fatty acid synthase; assay: FAS thioesterase domain inhibitors, dose response, biochemical, kinetic fluorescence intensity (AID 624326); type: functional;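 note: rate of fluorescence rise from hydrolysis of a fluorogenic O-methyl fluorescein ester substrate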
[10] = Luminescence-based cell-based high throughput dose response assay to identify activators of the DAF-12 from the parasite S. stercoralis (ssDAF-12).; type: functional
[11] = target: T4, Oxysterols receptor LXR-beta (Homo sapiens, UniProt P55055); assay: LXR agonists, Gal4 luciferase reporter, dose response, counter-screen for ssDAF-12 agonist project, cell-based, luminescence, HEK293, S. stercoralis campaign (AID 720737); type: functional; conditions: read-out: IC50 (the source's name)
T4 sequence (P55055 whole entry): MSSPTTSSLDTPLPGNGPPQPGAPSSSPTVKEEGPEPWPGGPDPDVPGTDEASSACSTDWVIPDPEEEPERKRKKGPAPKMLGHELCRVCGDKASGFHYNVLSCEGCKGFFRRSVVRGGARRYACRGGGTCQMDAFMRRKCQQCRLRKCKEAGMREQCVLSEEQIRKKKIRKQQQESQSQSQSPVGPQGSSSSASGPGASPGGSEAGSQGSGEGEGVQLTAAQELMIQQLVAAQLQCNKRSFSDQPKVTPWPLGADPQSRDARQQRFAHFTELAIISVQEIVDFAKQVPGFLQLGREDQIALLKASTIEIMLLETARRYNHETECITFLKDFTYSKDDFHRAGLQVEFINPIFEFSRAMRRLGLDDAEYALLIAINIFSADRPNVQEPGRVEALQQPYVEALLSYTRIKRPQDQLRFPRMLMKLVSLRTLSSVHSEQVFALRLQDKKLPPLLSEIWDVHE

[12] = cells
[13] = target: Kallikrein-7 (Homo sapiens, UniProt P49862); assay: Fluorescence Intensity-based biochemical primary high throughput dose response assay to identify activators of kallikrein-7 (K7) zymogen.
Kallikrein-7, sequence (P49862 whole entry): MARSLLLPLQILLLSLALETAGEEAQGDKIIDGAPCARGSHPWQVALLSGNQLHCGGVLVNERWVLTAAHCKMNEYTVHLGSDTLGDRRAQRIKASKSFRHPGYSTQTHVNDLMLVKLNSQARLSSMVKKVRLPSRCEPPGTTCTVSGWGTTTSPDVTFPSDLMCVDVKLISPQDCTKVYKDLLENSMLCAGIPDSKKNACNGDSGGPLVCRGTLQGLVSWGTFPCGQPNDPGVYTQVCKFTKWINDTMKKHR

[14] = EDANS-DABCYL fluorescence interference, concentration series, dose response, artefact control for kallikrein-7 zymogen activator project, biochemical, fluorescence intensity, triplicate (AID 720493)
[15] = target: Endoplasmic reticulum aminopeptidase 1 (Homo sapiens, UniProt Q9NZ08); assay: ERAP1 aminopeptidase inhibitors, dose response, biochemical, cherry-pick, set 2, plate reader (AID 743314)
Endoplasmic reticulum aminopeptidase 1, sequence (Q9NZ08 whole entry, the tested form may be a part): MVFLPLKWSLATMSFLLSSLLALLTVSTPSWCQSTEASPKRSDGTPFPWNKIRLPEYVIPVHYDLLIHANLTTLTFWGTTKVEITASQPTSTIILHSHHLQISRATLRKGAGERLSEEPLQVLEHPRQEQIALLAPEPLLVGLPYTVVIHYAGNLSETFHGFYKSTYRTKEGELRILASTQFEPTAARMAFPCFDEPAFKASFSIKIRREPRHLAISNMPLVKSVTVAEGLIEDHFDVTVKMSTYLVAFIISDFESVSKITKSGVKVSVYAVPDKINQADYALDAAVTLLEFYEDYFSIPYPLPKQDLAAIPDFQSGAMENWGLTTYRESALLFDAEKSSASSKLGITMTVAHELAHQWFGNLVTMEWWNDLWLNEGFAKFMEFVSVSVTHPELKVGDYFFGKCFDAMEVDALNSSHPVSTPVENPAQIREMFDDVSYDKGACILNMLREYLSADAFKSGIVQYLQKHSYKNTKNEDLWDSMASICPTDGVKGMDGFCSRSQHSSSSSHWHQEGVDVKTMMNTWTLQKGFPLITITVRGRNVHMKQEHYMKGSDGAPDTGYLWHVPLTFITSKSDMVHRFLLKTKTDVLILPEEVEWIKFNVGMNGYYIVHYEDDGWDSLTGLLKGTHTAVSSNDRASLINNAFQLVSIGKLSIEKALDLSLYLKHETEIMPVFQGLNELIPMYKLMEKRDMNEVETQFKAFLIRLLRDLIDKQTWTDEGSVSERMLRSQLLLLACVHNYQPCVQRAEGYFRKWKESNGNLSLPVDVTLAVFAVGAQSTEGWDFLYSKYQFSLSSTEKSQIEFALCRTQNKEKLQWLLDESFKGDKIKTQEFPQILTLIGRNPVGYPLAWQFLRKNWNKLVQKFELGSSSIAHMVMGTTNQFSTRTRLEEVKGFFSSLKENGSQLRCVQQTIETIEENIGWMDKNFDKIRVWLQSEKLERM

[16] = inhibitors of HIV Env-driven cell fusion, dose response, cherry-pick (AID 652057); type: functional, cell-based
[17] = inhibitors of clade B AD8 Env fusion, dose response, cell-based, cherry-pick (AID 652062); type: functional;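 note: luciferase signal from cell-cell fusion driven by HIV-1 clade B AD8 Env; potency is for inhibitors of fusion seen as a drop in luminescence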
[18] = HIV Env cell-cell fusion inhibitors, dose response, HIV entry, plate reader, dry powder (AID 687023); type: functional, cell-based
[19] = CEM21 cell cytotoxicity, dose response, cytotoxicity control, plate reader, dry powder (AID 687026); type: functional, cell-based
[20] = cytotoxicity in COV362 ovarian cancer cells, dose response, cytotoxicity control for PAX8 inhibitor project, cell-based, plate reader, dry powder, SA12 (AID 743144); type: functional
[21] = IOSE-T80 ovarian epithelial cell cytotoxicity, dose response, cytotoxicity control for PAX8 inhibitor project, plate reader, dry powder samples (AID 743045); type: functional, cell-based
[22] = NIH:OVCAR-3 ovarian cancer cell cytotoxicity, dose response, PAX8 inhibitor project, plate reader, dry powder samples (AID 743044); type: functional, cell-based
[23] = IGROV1 ovarian cancer cell cytotoxicity, dose response, PAX8 inhibitor project, plate reader, dry powder samples (AID 743043); type: functional, cell-based; conditions: IGROV-1
[24] = cytotoxicity in OVCAR4 cells, dose response, cytotoxicity control for PAX8 inhibitor project, cell-based, plate reader, dry powder, SA11 (AID 743150); type: functional; conditions: OVCAR-4
[25] = cytotoxicity in COV434 cells, dose response, cytotoxicity control for PAX8 inhibitor project, cell-based, plate reader, dry powder, SA7 (AID 743145); type: functional
[26] = cytotoxicity in OV-90 ovarian cancer cells, dose response, PAX8 inhibitor project, cell-based, plate reader, dry powder, SA8 (AID 743149); type: functional
[27] = cytotoxicity dependent on PAX8, dose response, cell-based, plate reader, dry powder (AID 743049); type: functional
[28] = A549 cell cytotoxicity, dose response, cytotoxicity control, plate reader, cherry-pick, antagonist series (AID 743412); type: functional, cell-based
[29] = LGR2 antagonists, dose response, cell-based, HEK293, CRE-luciferase reporter, cherry pick (AID 743342); type: functional
[30] = MC4R antagonists, dose response, counter-screen for LGR2 antagonist project, cell-based, plate reader, cherry pick (AID 743444); type: functional;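 note: transfected HEK 293 cells stimulated with alpha-MSH peptide; potency of inhibitors of the alpha-MSH evoked signal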
[31] = HEK293 cell cytotoxicity, dose response, cytotoxicity control, plate reader, cherry-picked samples (AID 743446); type: functional, cell-based
[32] = IRAP inhibitors, dose response, selectivity assay for ERAP1 modulator project, biochemical, Leu-AMC fluorescence, cherry-picked samples, set 2 (AID 743340)
[33] = target: T5, High affinity choline transporter 1 (Homo sapiens, UniProt Q9GZV3); assay: CHT choline uptake inhibitors, dose response, cell-based, HEK-293 hCHT, [3H]-choline uptake (AID 652177); type: functional
T5 sequence (Q9GZV3 whole entry): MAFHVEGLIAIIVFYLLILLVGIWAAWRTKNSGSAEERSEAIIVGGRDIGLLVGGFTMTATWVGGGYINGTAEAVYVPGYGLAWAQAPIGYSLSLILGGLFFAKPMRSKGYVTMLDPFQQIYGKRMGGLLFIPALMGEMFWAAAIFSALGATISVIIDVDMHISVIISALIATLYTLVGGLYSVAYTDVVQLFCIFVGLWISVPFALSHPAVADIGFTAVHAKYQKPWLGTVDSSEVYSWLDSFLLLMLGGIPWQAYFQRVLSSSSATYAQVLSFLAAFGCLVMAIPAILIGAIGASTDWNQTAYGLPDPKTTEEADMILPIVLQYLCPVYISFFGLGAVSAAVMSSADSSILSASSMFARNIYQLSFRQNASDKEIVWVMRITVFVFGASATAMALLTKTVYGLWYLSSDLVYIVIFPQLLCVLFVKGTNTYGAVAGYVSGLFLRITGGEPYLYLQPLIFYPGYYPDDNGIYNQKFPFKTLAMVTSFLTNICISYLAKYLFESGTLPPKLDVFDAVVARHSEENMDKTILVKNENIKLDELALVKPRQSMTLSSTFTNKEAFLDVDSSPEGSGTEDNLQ

[34] = system: H4; assay: Luminescence Cell-Based Dose Response HTS to Identify Activators of 5'UTR Stem-Loop Driven Prion Protein mRNA Translation in H4 Neuroglioblastoma Cells. [Related pubchem assays: 1829 (Project Summary), 1814 (Primary HTS)]; type: functional; conditions: Homo sapiens
[35] = target: T4, Oxysterols receptor LXR-beta; type: functional, cell-based
[36] = cells; remark: listed apart in the source
[37] = target: T4, Oxysterols receptor LXR-beta; type: functional, cell-based; remark: listed apart in the source

Cc1cccc(Cn2c(N(C)CCO)nc3c2c(=O)[nH]c(=O)n3C)c1
AC50 [1]: > 30 µM (inactive)

COc1cccc(NC(=O)CSc2n[nH]c3c4cc(C)ccc4nc-3n2)c1
IC50 [2]: 0.101 µM (active)
IC50 [3]: 83.3 µM (inactive)
IC50 [4]: 0.0483 µM (active)
IC50 [5]: > 83.3 µM (inactive)

CCC(C)n1c(=S)[nH]c2c(sc3ccc([N+](=O)[O-])cc32)c1=O (stereo not drawn)
IC50 [6]: 17.1 µM (active)
CC50 [7]: 100 µM (active)
IC50 [8]: 73.3 µM (active)
IC50 [9]: 15.5 µM (active)
IC50 [10]: > 67.5 µM (inactive)
EC50 [11]: > 67.5 µM (inactive)

CC12CC(c3ccccc3O1)C(C(=O)OCc1ccccc1)C(=O)N2 (stereo not drawn)
AC50 [12]: 0.151 µM (active)

CC1Nc2ccccc2C(=O)N1NS(C)(=O)=O (stereo not drawn)
EC50 [13]: 10.3 µM (inactive)
EC50 [14]: > 7.73 µM (active)

CC(C)(C)c1cc(N2CCOCC2)n2ncc(-c3ccccc3)c2n1
AC50 [15]: 14.2 µM (active)

C[C@@H]1CN([C@H](C)CO)C(=O)c2cccc(NC(=O)C3CCCCC3)c2O[C@H]1CN(C)Cc1ccccc1
AC50 [16]: 12.1 µM (active)
AC50 [17]: 3.35 µM (active)
AC50 [18]: 8.1 µM (active)
AC50 [19]: 31 µM (active)

O=C(CCCN1C(=O)/C(=C\c2cccc(Br)c2)SC1=S)Nc1ccccn1
AC50 [20]: 46.2 µM (active)
AC50 [21]: 68.5 µM (active)
AC50 [22]: 18.9 µM (active)
AC50 [23]: 14.8 µM (active)
AC50 [24]: 42.7 µM (active)
AC50 [25]: 49.7 µM (active)
AC50 [26]: 36.8 µM (active)
AC50 [27]: 17.6 µM (active)

COc1ccc(S(=O)(=O)N(C)C[C@@H]2OCCCC[C@H](C)Oc3ccc(NS(=O)(=O)c4ccc(Cl)cc4)cc3C(=O)N([C@@H](C)CO)C[C@@H]2C)cc1
AC50 [28]: 5.98 µM (active)
AC50 [29]: 3.79 µM (active)
AC50 [30]: 4.58 µM (active)
AC50 [31]: 28.5 µM (active)

COc1ccc(CN(C)C[C@@H]2OCCCC[C@@H](C)Oc3ccc(NS(=O)(=O)c4c(C)noc4C)cc3C(=O)N([C@@H](C)CO)C[C@@H]2C)cc1
AC50 [32]: 16.2 µM (active)

COc1ccc(C(=O)NCc2csc(C)n2)cc1OC1CCN(C(C)C)CC1
IC50 [33]: 6.18 µM (active)

C/C(=N\Nc1nc2c(s1)CCCC2)c1ccccc1
EC50 [34]: 5.13 µM (active)
EC50 [35]: > 67.5 µM (inactive)
EC50 [36]: > 67.5 µM (inactive)

COC(=O)C1C(=O)c2c([nH]c(C(=O)OC3CCCCC3)c2C)CC1C (stereo not drawn)
EC50 [34]: 8.72 µM (active)
EC50 [37]: > 67.5 µM (inactive)
